Here are results for nine molecules from paper PMC9927415, “Tyrosine Kinase Inhibitors Display Potent Activity against Cryptosporidium parvum” (Microbiology Spectrum, 2022).

The test system of one data set is Cryptosporidium parvum. Nature of the data set: In vitro C. parvum growth inhibition assay (Nluc reporter strain in HCT-8 cells). It counts as cell-based. Conditions: 48 h; for EC50: mean of two independent experiments, dose response 10 nM to 10 μM, read-out: Cp EC50; for inhibition at 10 µM: primary screen, 10 μM compound, three technical replicates, read-out: Mean percent inhibition of C. parvum growth. The protocol: Host intestinal epithelial adenocarcinoma (HCT-8) cells were seeded into 96-well plates and grown to 70% confluence in RPMI medium supplemented with L-glutamine, 10% fetal bovine serum (FBS), 0.1 U/mL penicillin, 0.1 μg/mL streptomycin, 0.25 μg/mL amphotericin B and 1 mM sodium pyruvate. The host cell medium was aspirated and replaced with Cryptosporidium infection media (RPMI containing 2% FBS, 0.1 U/mL penicillin, 0.1 μg/mL streptomycin and 0.25 μg/mL amphotericin B) media prior to infection. The HCT-8 cells were infected with bleached and washed Nluc expressing C. parvum oocysts (2,000 oocysts per well) to which 10 μM compounds were added and plates were incubated for 48 h at 37°C, 5% CO2 and luminescence was measured using the protocol described previously ([14], [58]). […] Negative (no drug) and positive control (10 μM nitazoxanide) wells (three replicates each) were also set-up in the same plate. After the incubation, medium was removed and 100 μL of NanoGlo lysis buffer (Promega) was added to the wells followed by incubation for 15 min at 37°C, 5% CO2. The lysate was suspended by pipetting and 100 μL of NanoGlo lysis buffer containing 1:50 of NanoGlo substrate (Promega) was added to each well. […] For the dose response assay, compounds were tested in triplicate wells in two independent experiments and percent luminescence of no drug was calculated.
EC50 values were calculated using a nonlinear regression (curve fit of log-dose versus response) in GraphPad Prism version 8.

Data set [1] can be described thus: Host cell cytotoxicity assay (CellTiter-Glo). To be noted: human, HepG2 cells. The protocol:
(§1) HepG2 cells were grown in Eagle’s Minimum Essential Medium (MEM) containing 10% FBS, 1% nonessential amino acids (NEAA) and 1% penicillin/streptomycin to >50% confluence prior to harvesting. Cells were suspended in media and 3000 cells per well were added onto 384-well clear bottom plates. Prior to addition of the cell suspension, the screening compounds (250 nl) were predispensed into plates using a liquid handler. Plates were incubated for 48 h at 37°C, 5% CO2. After 48 h of incubation, plates were equilibrated at room temperature for 30 min before luminescence signal was measured using CellTiter-Glo Reagent. Plates were kept at room temperature for 10 min to stabilize the signal and then read using a ViewLux luminescence reader. The HepG2 CC50 (from the host cell cytotoxicity assays) and C. parvum mean EC50 (from parasite growth inhibition assays) values were used to calculate selectivity index.
(In ATP-based viability assays light output follows the ATP content of the culture.)

In the next data set the test system is HepG2 cells. Nature of the data set: Host cell cytotoxicity assay (CellTiter-Glo). To be noted: HepG2 CC50/C. parvum EC50. The method, then: as §1
The subject of another data set is panel of 203 kinases. Description: KINOMEscan competitive binding, whole panel. Set-up: species or system human. Conditions: 10 μM; for number of other kinases strongly bound (≥99%): not including the CDKs and Aurora kinase A. In a few lines:
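Kinases were expressed as T7 bacteriophage fusions, and test compounds competed with immobilized ATP-site probe ligands for binding. Kinase remaining bound to the solid-support probe was quantified, and values are given as percentage inhibition.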

A further data set has as its target T1, PAK2 (Homo sapiens, UniProt Q13177).
T1 construct: purchased DiscoverX (KINOMEscan)
Description: KINOMEscan competitive binding. Conditions: n=1, read-out: Percent inhibition, PAK2.

Another data set has as its target T2, PKN2 (Homo sapiens, UniProt Q16513).
T2 construct: purchased DiscoverX (KINOMEscan)
Description: KINOMEscan competitive binding. To be noted: n=1, read-out: Percent inhibition, PKN2.

The target of the next data set is T3, RET (Homo sapiens, UniProt P07949).
T3 construct: purchased DiscoverX (KINOMEscan)
T3 sequence (P07949 29-1114): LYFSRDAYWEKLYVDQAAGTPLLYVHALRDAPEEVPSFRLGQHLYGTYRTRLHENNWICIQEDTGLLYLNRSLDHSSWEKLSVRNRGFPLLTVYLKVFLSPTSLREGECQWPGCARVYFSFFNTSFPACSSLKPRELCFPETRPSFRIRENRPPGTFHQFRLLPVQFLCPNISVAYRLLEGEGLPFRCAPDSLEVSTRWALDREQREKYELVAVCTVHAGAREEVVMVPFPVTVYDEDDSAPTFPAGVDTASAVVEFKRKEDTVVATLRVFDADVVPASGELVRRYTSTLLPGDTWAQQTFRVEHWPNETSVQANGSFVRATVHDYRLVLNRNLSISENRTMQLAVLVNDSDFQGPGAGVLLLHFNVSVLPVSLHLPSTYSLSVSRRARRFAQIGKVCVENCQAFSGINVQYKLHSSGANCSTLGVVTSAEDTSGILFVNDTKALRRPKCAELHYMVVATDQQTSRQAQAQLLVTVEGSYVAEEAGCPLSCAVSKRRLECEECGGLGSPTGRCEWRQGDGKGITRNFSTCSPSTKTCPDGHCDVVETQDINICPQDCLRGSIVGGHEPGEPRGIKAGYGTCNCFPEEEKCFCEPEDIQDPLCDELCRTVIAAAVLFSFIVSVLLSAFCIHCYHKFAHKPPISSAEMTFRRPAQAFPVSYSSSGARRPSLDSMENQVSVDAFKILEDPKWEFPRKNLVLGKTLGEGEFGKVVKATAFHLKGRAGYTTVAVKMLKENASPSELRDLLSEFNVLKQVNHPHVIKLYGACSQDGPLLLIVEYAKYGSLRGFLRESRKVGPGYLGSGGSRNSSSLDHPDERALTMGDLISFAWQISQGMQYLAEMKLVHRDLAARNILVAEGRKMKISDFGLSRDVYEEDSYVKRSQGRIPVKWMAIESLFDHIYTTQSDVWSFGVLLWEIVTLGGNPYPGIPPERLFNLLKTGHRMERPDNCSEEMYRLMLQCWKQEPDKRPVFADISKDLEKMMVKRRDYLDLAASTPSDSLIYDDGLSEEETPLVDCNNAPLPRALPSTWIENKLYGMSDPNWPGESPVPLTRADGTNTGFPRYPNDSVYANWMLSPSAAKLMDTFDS
Nature of the data set: KINOMEscan competitive binding. Conditions: n=1, read-out: Percent inhibition, RET.

A further data set deals with T4, RIPK2 (Homo sapiens, UniProt O43353).
T4 construct: purchased DiscoverX (KINOMEscan)
T4 sequence (O43353 whole entry): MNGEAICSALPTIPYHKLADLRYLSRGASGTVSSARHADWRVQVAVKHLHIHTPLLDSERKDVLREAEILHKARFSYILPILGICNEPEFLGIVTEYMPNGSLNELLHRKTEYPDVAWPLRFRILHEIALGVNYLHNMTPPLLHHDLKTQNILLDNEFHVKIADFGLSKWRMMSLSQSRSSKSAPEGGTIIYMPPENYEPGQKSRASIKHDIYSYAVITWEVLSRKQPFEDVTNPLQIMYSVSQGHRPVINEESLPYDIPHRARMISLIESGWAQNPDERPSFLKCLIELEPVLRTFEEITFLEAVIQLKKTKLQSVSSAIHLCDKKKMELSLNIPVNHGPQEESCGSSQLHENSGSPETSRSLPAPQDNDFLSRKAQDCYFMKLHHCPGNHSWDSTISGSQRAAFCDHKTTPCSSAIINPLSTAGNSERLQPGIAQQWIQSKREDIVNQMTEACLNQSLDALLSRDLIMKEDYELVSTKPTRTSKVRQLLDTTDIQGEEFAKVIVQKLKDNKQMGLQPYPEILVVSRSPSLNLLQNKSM
Nature of the data set: KINOMEscan competitive binding. Conditions: n=1, read-out: Percent inhibition, RIPK2.

Another data set deals with T5, RPS6KA5(Kin.Dom.1) (Homo sapiens, UniProt O75582).
T5 construct: RPS6KA5(Kin.Dom.1); purchased DiscoverX (KINOMEscan)
T5 sequence (O75582 1-387 limits assumed): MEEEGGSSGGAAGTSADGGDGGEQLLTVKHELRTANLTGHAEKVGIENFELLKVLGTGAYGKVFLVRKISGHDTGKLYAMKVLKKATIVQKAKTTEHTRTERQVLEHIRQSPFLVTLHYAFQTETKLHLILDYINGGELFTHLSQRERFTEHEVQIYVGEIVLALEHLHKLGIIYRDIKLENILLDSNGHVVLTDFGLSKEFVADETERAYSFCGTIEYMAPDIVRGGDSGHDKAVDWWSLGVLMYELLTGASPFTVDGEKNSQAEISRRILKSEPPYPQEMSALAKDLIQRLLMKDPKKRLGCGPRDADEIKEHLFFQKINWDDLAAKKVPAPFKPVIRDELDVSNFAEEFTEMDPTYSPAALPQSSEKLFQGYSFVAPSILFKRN
Nature of the data set: KINOMEscan competitive binding. To be noted: n=1, read-out: Percent inhibition, RPS6KA5(Kin.Dom.1).

A further data set addresses T6, SRPK1 (Homo sapiens, UniProt Q96SB4).
T6 construct: purchased DiscoverX (KINOMEscan)
Description: KINOMEscan competitive binding. To be noted: n=1, read-out: Percent inhibition, SRPK1.

A further data set deals with T7, STK33 (Homo sapiens, UniProt Q9BYT3).
T7 construct: purchased DiscoverX (KINOMEscan)
T7 sequence (Q9BYT3 whole entry): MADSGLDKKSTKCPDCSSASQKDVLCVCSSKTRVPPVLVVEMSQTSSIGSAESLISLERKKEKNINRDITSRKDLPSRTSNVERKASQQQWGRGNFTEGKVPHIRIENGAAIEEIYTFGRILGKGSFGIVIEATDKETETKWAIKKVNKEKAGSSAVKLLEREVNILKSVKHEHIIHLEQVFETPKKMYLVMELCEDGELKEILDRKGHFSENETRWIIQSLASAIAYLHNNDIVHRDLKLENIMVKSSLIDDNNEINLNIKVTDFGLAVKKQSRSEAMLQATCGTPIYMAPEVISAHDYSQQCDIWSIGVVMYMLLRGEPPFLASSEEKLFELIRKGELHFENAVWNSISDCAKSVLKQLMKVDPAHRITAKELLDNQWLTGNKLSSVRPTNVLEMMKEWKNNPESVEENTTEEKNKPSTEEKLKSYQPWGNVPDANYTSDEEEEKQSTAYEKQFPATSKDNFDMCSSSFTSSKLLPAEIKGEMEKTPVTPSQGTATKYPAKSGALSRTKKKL
Nature of the data set: KINOMEscan competitive binding. Conditions: n=1, read-out: Percent inhibition, STK33.

A further data set addresses T8, TNNI3K (Homo sapiens, UniProt Q59H18).
T8 construct: purchased DiscoverX (KINOMEscan)
T8 sequence (Q59H18 1-835): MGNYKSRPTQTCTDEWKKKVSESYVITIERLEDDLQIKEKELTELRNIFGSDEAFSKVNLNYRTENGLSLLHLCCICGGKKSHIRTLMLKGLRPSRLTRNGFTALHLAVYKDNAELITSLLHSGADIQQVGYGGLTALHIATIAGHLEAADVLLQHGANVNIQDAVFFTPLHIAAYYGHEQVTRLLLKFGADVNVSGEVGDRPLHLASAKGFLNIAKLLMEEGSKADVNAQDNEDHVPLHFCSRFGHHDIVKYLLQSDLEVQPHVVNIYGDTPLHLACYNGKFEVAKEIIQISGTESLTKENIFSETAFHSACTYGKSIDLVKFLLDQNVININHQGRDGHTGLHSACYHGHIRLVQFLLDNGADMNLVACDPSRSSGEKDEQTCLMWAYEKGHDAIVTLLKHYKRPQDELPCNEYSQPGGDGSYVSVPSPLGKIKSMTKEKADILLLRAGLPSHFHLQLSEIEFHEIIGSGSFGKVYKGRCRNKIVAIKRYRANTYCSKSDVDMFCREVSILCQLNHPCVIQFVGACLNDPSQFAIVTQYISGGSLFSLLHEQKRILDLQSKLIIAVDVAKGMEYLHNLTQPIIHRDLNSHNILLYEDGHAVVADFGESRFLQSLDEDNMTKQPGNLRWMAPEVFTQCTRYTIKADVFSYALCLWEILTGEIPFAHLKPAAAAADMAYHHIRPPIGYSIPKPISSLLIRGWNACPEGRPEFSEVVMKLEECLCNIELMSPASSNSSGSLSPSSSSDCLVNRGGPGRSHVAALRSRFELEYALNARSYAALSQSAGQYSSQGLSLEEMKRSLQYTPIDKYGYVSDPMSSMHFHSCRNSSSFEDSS
Nature of the data set: KINOMEscan competitive binding. To be noted: n=1, read-out: Percent inhibition, TNNI3K.

A value given as a limit tells only on which side of the number the result lay.

As a reminder, the EC50 is the midpoint of the concentration-response curve. As a reminder, the inhibition is the change of the read-out against control, counted positive when it falls. In general, CC50 refers to the concentration at which the toxic effect on the cells reaches its halfway point. High values mean better tolerance by the cells, low ones harm at low concentration.

T2 sequence (Q16513 whole entry): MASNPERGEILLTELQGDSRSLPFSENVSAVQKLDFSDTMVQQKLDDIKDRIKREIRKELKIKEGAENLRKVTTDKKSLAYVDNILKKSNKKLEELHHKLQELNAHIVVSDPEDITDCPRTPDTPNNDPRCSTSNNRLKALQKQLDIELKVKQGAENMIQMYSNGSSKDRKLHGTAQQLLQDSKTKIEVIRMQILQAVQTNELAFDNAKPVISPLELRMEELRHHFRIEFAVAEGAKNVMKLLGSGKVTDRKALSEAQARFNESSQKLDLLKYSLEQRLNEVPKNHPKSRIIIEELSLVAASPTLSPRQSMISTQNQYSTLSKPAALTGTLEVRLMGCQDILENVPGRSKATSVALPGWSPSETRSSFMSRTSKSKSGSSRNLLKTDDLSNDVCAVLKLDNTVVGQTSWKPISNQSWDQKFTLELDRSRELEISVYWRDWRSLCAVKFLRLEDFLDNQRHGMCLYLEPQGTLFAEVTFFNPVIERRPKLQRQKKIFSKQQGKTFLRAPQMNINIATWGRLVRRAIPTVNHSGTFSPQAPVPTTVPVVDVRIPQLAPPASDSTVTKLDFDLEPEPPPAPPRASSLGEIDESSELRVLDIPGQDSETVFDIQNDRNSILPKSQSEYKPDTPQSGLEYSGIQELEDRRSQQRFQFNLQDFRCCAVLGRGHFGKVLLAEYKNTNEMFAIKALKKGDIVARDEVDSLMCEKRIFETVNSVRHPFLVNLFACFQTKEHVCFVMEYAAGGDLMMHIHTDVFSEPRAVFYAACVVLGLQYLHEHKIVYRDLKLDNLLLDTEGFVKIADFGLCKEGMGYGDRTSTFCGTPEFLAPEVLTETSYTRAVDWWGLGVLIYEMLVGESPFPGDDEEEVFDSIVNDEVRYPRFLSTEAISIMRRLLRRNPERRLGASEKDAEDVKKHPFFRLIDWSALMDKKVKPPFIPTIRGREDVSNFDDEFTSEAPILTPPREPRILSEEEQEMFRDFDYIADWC
T1 sequence (Q13177 whole entry): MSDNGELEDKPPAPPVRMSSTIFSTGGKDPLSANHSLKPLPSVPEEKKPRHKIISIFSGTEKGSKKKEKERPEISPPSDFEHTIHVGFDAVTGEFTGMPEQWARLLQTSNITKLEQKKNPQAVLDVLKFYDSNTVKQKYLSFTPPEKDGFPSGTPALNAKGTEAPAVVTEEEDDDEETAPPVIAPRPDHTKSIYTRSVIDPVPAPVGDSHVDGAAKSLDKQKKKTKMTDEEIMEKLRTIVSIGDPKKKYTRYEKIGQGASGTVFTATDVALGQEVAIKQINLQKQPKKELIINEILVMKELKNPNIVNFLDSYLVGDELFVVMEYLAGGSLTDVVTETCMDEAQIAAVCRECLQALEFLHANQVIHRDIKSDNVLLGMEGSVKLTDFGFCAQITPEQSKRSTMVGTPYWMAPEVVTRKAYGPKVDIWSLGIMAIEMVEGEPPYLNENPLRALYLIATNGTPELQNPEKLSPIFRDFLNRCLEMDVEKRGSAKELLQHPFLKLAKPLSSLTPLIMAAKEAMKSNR
T6 sequence (Q96SB4 whole entry): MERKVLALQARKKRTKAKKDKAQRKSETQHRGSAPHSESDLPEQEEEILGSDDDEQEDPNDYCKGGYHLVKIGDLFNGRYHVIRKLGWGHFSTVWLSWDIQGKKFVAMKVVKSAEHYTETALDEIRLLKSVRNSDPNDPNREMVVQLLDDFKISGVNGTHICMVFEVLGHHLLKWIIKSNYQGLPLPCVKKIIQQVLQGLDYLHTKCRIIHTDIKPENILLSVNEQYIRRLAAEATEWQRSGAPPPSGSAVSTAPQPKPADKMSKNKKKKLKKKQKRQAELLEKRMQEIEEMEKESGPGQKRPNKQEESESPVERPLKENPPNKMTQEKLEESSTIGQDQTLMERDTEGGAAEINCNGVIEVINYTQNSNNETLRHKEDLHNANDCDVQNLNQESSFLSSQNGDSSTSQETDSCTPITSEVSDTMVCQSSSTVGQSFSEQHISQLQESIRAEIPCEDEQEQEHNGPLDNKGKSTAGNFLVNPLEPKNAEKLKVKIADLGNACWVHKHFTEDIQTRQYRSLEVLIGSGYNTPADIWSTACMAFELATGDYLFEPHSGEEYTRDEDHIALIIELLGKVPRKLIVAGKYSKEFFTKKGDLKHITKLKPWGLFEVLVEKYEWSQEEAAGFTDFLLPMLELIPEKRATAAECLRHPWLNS

On to `CN1CCN(c2ccc(Nc3nccc(-c4cnn5ncccc45)n3)cc2C#N)CC1` [Compound 1], for which the EC50 in the data set with Cryptosporidium parvum is 40 nM. Also, the inhibition at 10 µM in the data set on Cryptosporidium parvum turned out to be 95.6%; at PAK2 it was 95.4%; at PKN2, 67.8%; at RET it was 89.8%; on RIPK2, 90.6%; on RPS6KA5(Kin.Dom.1), 65.7%. Besides, the inhibition at 10 µM at SRPK1 was 95.5%; on STK33, 98.1%; at TNNI3K it was 0%. The CC50 at 48 h in [1] is greater than 100000 nM. The molecule also returned a Selectivity index with HepG2 cells greater than 100. In addition, the “number of other kinases strongly bound (≥99%)” value in the data set with panel of 203 kinases is recorded as 50.
Regarding `COc1ccc(Nc2nccc(-c3cnn4ncccc34)n2)cc1` [Compound 2], the EC50 in the data set with Cryptosporidium parvum is 130 nM. For the same molecule, the inhibition at 10 µM in the data set with Cryptosporidium parvum was 92.9%; at PAK2, 0%; at PKN2 it was 0%; at RET, 0%; at RIPK2, 0%; on RPS6KA5(Kin.Dom.1) it was 0%. Moreover, the results for the inhibition at 10 µM at SRPK1, at STK33 and at TNNI3K were 90.6%, 68.9% and 0%, respectively. In [1], this molecule returned a half-maximal cytotoxic concentration (CC50) at 48 h greater than 100000 nM. Further, the Selectivity index in the data set with HepG2 cells is reported as greater than 100. Besides, the “number of other kinases strongly bound (≥99%)” value with panel of 203 kinases amounted to 28.
For the molecule `Cc1ccc(O)cc1Nc1ccnc(Nc2cccc(C(N)=O)c2)n1` [Compound 3], the concentration giving a half-maximal response (EC50) in the data set with Cryptosporidium parvum worked out at 610 nM. The inhibition at 10 µM with Cryptosporidium parvum worked out at 94.4%; on PAK2 it was 93.4%; on PKN2, 0%; at RET, 100%; at RIPK2, 100%; on RPS6KA5(Kin.Dom.1), 0%. For the same molecule, the inhibition at 10 µM at SRPK1 came to 0%; at STK33, 89.1%; on TNNI3K, 99.9%. For the same molecule, the CC50 at 48 h in [1] came to 33100 nM.
As for `Cc1ccc(O)cc1N(C)c1ccnc(Nc2cccc(S(N)(=O)=O)c2)n1` [Compound 4], the EC50 in the data set with Cryptosporidium parvum stood at 80 nM. For the same molecule, the inhibition at 10 µM in the data set with Cryptosporidium parvum came to 95.5%; at PAK2, 100%; at PKN2 it was 0%; at RET it was 100%; on RIPK2 it was 100%; on RPS6KA5(Kin.Dom.1), 0%. Moreover, the inhibition at 10 µM on SRPK1 came out at 0%; on STK33 it was 85.7%; at TNNI3K, 100%.
As to `Fc1cccc(COc2ccc(Nc3ncnc4c3CN(CCN3CCOCC3)CC4)cc2Cl)c1` [Compound 6], the EC50 in the data set on Cryptosporidium parvum was found to be 240 nM. Also, the inhibition at 10 µM in the data set with Cryptosporidium parvum turned out to be 93.7%; at PAK2 it was 97.6%; on PKN2 it was 71.4%; on RET, 0%; at RIPK2, 0%; on RPS6KA5(Kin.Dom.1), 0%. The inhibition at 10 µM at SRPK1, at STK33 and at TNNI3K was 0% each time. Besides, the midpoint of cytotoxicity in data set [1], the CC50 at 48 h, lay at 46700 nM. The Selectivity index with HepG2 cells was greater than 100.
Consider `COc1cc(Nc2nccc(-c3sc(N)nc3-c3cccc(NC(=O)c4c(F)cccc4F)c3)n2)cc(OC)c1OC` [Compound 7], for which the EC50 in the data set on Cryptosporidium parvum came out at 180 nM. Moreover, the inhibition at 10 µM with Cryptosporidium parvum worked out at 90.9%; at PAK2 it was 90%; at PKN2 it was 0%; on RET, 100%; at RIPK2, 100%; on RPS6KA5(Kin.Dom.1), 97.4%. Moreover, the inhibition at 10 µM at SRPK1 came out at 0%; at STK33, 0%; at TNNI3K, 100%. The CC50 at 48 h in [1] came to 2600 nM. In addition, the Selectivity index with HepG2 cells came out at 14. Also, the “number of kinases with >99% inhibition” value in the data set on panel of 203 kinases turned out to be 48.
For the molecule `C[C@@H](Oc1cc(-c2cnc3ccccn23)sc1C(N)=O)c1ccccc1Cl` [Compound 8], the EC50 in the data set with Cryptosporidium parvum came to 390 nM. The inhibition at 10 µM with Cryptosporidium parvum came out at 95%; at PAK2, 0%; at PKN2, 79.3%; at RET, 0%; at RIPK2, 0%; on RPS6KA5(Kin.Dom.1), 0%. Besides, the inhibition at 10 µM turned out to be 96.1% at SRPK1, 0% at STK33 and 0% on TNNI3K.
`Clc1ccc(Nc2ncc(-c3ccccc3)s2)cc1` [Compound 10]: in the data set with Cryptosporidium parvum, the EC50 is 420 nM. Further, the inhibition at 10 µM in the data set with Cryptosporidium parvum was found to be 95.1%; on PAK2, 0%; at PKN2, 0%; on RET, 0%; at RIPK2 it was 0%; on RPS6KA5(Kin.Dom.1) it was 0%. In addition, the values for the inhibition at 10 µM at SRPK1, on STK33 and at TNNI3K were 0%, 0% and 86%, respectively.
With `Nc1ncc2c(-c3ccncc3)c[nH]c2n1` [Compound 11], the half-maximal effective concentration (EC50) with Cryptosporidium parvum worked out at 60 nM. Besides, the inhibition at 10 µM is 90.8% in the data set with Cryptosporidium parvum; 0% on PAK2; 0% on PKN2; 0% on RET; 0% at RIPK2; 0% on RPS6KA5(Kin.Dom.1). Also, the inhibition at 10 µM on SRPK1, at STK33 and at TNNI3K was 0% each time. The molecule also returned a CC50 at 48 h in data set [1] of 50100 nM. Moreover, in the data set on HepG2 cells, the Selectivity index is listed as greater than 100.
